Data from patent publication US20210145722A1, “ACTIVE SUBSTANCE COMBINATIONS OF N-(4-AMINO-2-METHYLQUINOLIN-6-YL)-2-((4-ETHYLPHENOXY)METHYL)BENZAMIDE AND ONE OR MORE COSMETICALLY OR DERMATOLOGICALLY ACCEPTABLE FRAGRANCES” (BEIERSDORF AG, priority 2017, published 2021).
Where two headings read alike, the source gives them in different places.

Legend:
subcutaneous adipocytes = assay: Lipid assay (AdipoRed staining of differentiated adipocytes); assay type: cell-based; conditions: combination with 10 ng/ml N-(4-amino-2-methylquinolin-6-yl)-2-((4-ethylphenoxy)methyl)benzamide; one week treatment
Procedure: The lipid assay is performed on subcutaneous adipocytes. Cell culture dishes are inoculated with preadipocytes, which undergo differentiation into adipocytes. This is followed by treatment with the active substance for one week, during which the cells synthesize lipids and store them in vesicles. The total amount of lipid as a function of active substance effects is determined at the end of the culture period. This is done by staining the cell monolayer with the lipophilic fluorescent dye AdipoRed, followed by quantification by fluorescence spectroscopy.

[1] = LDH (lactate dehydrogenase) cytotoxicity assay, fibroblasts
Procedure: The third assay performed is the LDH (lactate dehydrogenase) cytotoxicity assay. In this assay, the metabolic enzyme LDH is detected in the medium supernatant of the cell monolayer by adding a substrate for the enzyme to the cell culture supernatant. Reaction of the latter produces a color change, which is determined photometrically. The magnitude of the color change correlates here with the amount of LDH in the cell culture supernatant.
For all assays, the active substances were present as 1000× stocks dissolved to 10 mM in DMSO and were diluted 1:1000 in the appropriate cell culture medium for use.

dermal fibroblasts = assay: BrdU viability assay (cell division rate); assay type: cell-based; conditions: combination with 10 ng/ml N-(4-amino-2-methylquinolin-6-yl)-2-((4-ethylphenoxy)methyl)benzamide; 24 h treatment
Procedure: For the viability assay, dermal fibroblasts were treated with active substances/active substance combinations in the cell culture medium for 24 h and during this time were provided with BrdU (5-bromodeoxyuridine). The cells take up this synthetic nucleic acid, which is detectable by fluorescence detection, and incorporate it into newly synthesized genetic material during cell division. The fluorescence of the cell monolayer is then measured after 24 h, the intensity of which is ultimately a measure of the cell division rate during treatment with the active substance. This allows conclusions to be drawn about the effect of the individual active substances on cell viability.

[2] = combination with 10 ng/ml N-(4-amino-2-methylquinolin-6-yl)-2-((4-ethylphenoxy)methyl)benzamide, table does not say whether fibroblasts or adipocytes

Structure (SMILES) | Assay in which the combination showed better activity than the corresponding active substance alone: Lipid (subcutaneous adipocytes) | Assay in which the combination showed better activity than the corresponding active substance alone: LDH [1, 2] | also measured
C=C(C)[C@H]1CC=C(C)CC1 [Limonene D pure, Limonene D] | Lipid |  | 
CC(=O)C1(C)CC2=C(CCCC2(C)C)CC1C (centres unmarked) [Iso E Super] | Lipid | LDH | 
O=C(OCc1ccccc1)c1ccccc1O [Benzyl salicylate] |  |  | Assay in which the combination showed better activity than the corresponding active substance alone: LDH [1]: LDH
O=C1CCCCCCCCCCCCCCO1 [Macrolide supra] | Lipid |  | 
OCc1ccccc1 [Benzyl alcohol DD, Benzyl alcohol] | Lipid |  | 
C=CC(C)(CCC=C(C)C)OC(C)=O (centres unmarked) [Linalyl acetate] |  | LDH | 
O=C(C=Cc1ccccc1)OCc1ccccc1 [Benzyl cinnamate] | Lipid |  | 
C=CC(C)(O)CCC=C(C)C (centres unmarked) [Linalool aroma, Linalool] | Lipid | LDH | 
CC(C)=CCCC(C)=CCCC(C)=CCO [Farnesol] |  | LDH | 
C=CCc1ccc(O)c(OC)c1 [Eugenol] |  |  | Assay in which the combination showed better activity than the corresponding active substance alone: BrdU (dermal fibroblasts): BrdU
CCOc1cc(C=O)ccc1O [Ethyl vanillin] | Lipid |  | 
OCCc1ccccc1 [Phenylethyl alcohol] |  |  | Assay in which the combination showed better activity than the corresponding active substance alone: BrdU (dermal fibroblasts): BrdU
CC(C=O)Cc1ccc(C(C)(C)C)cc1 (centres unmarked) [Lilial] |  | LDH | 
CC/C=C\CCO [Hexenol cis-3] | Lipid | LDH | Assay in which the combination showed better activity than the corresponding active substance alone: BrdU (dermal fibroblasts): BrdU
CCCCCC1C(=O)CCC1CC(=O)OC (centres unmarked) [Hedion] | Lipid | LDH | Assay in which the combination showed better activity than the corresponding active substance alone: BrdU (dermal fibroblasts): BrdU
CC(CC=O)CCCC(C)(C)O (centres unmarked) [Hydroxycitronellal] |  | LDH | 
Cc1ccc(C(C)C)c(O)c1 [Thymol cryst., Thymol] |  | LDH | 
CC(C)=CCCC(C)CCO (centres unmarked) [Citronellol 950, Citronellol] | Lipid | LDH | 
C=CC(C)(O)CCC=C(C)CC (mixture of isomers) [Ethyl linalool] | Lipid |  | 
CCCCCC#CC(=O)OC [Methyl heptine carbonate] | Lipid | LDH | 
CCCCCCOC(=O)c1ccccc1O [Hexyl salicylate] | Lipid | LDH | 
C=CC(C)CCCC(C)(C)O (centres unmarked) [Dihydromyrcenol] | Lipid |  | 
CC(C)=CCCC(C)=CC=O [Citral 95, Citral] |  |  | Assay in which the combination showed better activity than the corresponding active substance alone: BrdU (dermal fibroblasts): BrdU
